The values that follow come from publication PMC9721052, “AHL-Priming Protein 1 mediates N-3-oxo-tetradecanoyl-homoserine lactone priming in Arabidopsis” (BMC Biology, 2022).

The experiment addresses T1, ALI1 (AHL-Priming Protein 1; AtGlcAK2, formerly AtGALK2) (Arabidopsis thaliana, UniProt Q9LY82).
T1 construct: gene GLCAK2; full ORF amplified from Col-0 cDNA, pDEST17, N-terminal 6xHis kept, expressed in E. coli BL21, Ni-NTA purified; GST-ALI1 also made for the biosensor assay
T1 sequence (Q9LY82 1-366): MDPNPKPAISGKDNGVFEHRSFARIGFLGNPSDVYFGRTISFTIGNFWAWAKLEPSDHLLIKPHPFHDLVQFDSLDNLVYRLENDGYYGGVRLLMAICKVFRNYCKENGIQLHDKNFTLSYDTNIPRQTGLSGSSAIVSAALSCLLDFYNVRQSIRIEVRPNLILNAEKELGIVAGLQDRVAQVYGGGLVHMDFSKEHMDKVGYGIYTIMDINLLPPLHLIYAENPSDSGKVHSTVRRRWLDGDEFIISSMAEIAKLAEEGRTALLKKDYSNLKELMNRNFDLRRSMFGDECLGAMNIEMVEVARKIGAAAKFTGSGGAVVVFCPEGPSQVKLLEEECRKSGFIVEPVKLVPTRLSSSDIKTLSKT
In words: sequestration of free ligand read by biosensor E. coli LuxCDABE luminescence. Format: binding. To be noted: 6 nmol protein, 0-18 nmol ligand, overnight; indirect assay, MST and nanoDSF by the same authors did not confirm.

For the molecule `CCCCCCCCCCCC(=O)CC(=O)N[C@H]1CCOC1=O` [oxo-C14-HSL], the “sequestration of free ligand read by biosensor E. coli LuxCDABE luminescence” value was “equivalently able to sequestrate oxo-C14-HSL molecule from the solution”.
